Measurements reported in patent US11655208B2, “1-carboxy-2-hydroxy-3-iminopropane and extraction method thereof” (Jiangnan University, priority 2020, dated 2023).

Columns and labels:
Assay type in all cases: in vivo
male ICR mice [1] = assay: Open field test; conditions: for Movement speed / Movement time / Stay time in the middle area: mice, gavage for 14 days, within 10 minutes, x ± s
Experimental: (§1) 30 SPF-level 4-week-old male ICR (Institute of Cancer Research) mice were adaptively reared for 1 week and then randomly divided into 3 groups with 10 mice in each group. An experimental group and a blank group were given an aqueous solution of the 1-carboxy-2-hydroxy-3-iminopropane and water at a dose of 1.0 g/kg·bw by gavage respectively, and a positive control group was given an aqueous solution of estazolam at a dose of 2 mg/kg·bw by the gavage. After continuous gavage for 14 days, tests were carried out. The tests were carried out around 25° C. in a quiet environment.
An open field maze of 4 units (each unit 50 cm×50 cm×38 cm) consisting of 4 activity spaces were used in the test, and 4 mice were tested each time. The open field spaces were cleaned with alcohol before the test, and the test was started 30 minutes after a sample group was administered (15 minutes after a positive control group was administered). During the test, tails of the mice were gently grasped, and the mice were placed in the middle of each unit of the open field maze for adaption for 5 minutes. A software start button was clicked to activate software for tracking moving paths of the mice. With an average movement speed, a movement time and a stay time in the middle area within 10 minutes as indexes, data analysis was conducted by using EthoVision XT 11 software. After each test was completed, urine and feces were cleaned, and a bottom and an inner wall of the maze were sprayed with 5-10% ethanol and then wiped with paper to remove an odor left by the mice. Then, a next group of the mice was tested, and influence of the odor and residue on the next group of the mice was avoided.

male ICR mice [2] = assay: Direct sleep observation test; conditions: for 12 h sleep duration period: mice, sleep time within 12 hours after the gavage, x ± s
Experimental: as §1
After the open field test was completed, a direct sleep observation test was carried out the next night. 30 minutes after the gavage, a surveillance camera was used for observation, and a sleep time of the mice in each group within 12 hours after the gavage was recorded.

male ICR mice [3] = assay: Pentobarbital sodium induced sleep test; design: Sleep duration period: unit not given here
Experimental: as §1
Before the test, a preliminary test was carried out to determine a dose of pentobarbital sodium by intraperitoneal injection. After the intraperitoneal injection, the dose when all mice fell asleep for a moderate time was used as a standard, and the test was carried out with this dose (50 mg/kg·bw). 30 minutes after the last gavage, the mice were given the pentobarbital sodium by intraperitoneal injection to induce sleep. The time from injection of the pentobarbital sodium to disappearance of a righting reflex was recorded as a sleep latency period of the mice. The time from the disappearance of the righting reflex to reappearance of the righting reflex was recorded as a […] of the mice. Whether or not the latency period of each group was shortened and whether or not the sleep time was prolonged were observed.

[4] = mice, pentobarbital sodium 50 mg/kg·bw i.p. 30 minutes after the last gavage, x ± s
[5] = pentobarbital sodium induced sleep, vs blank group, P<0.05

| Compound | Movement speed (male ICR mice [1]) [cm/s] | Movement time (male ICR mice [1]) [s] | Stay time in the middle area (male ICR mice [1]) [%] | effect on stay time in the middle area of the mice (in words) (male ICR mice [1]; vs blank group, P<0.01) | effect on movement speed of the mice (in words) (male ICR mice [1]; vs blank group, P<0.05) | effect on movement time of the mice (in words) (male ICR mice [1]; vs blank group, P<0.05) | 12 h sleep duration period (male ICR mice [2]) [min] | total sleep duration period within 12 hours (in words) (male ICR mice [2]; vs blank group, P<0.05) | Latency period (male ICR mice [3]; [4]) [s] | Sleep duration period (male ICR mice [3]; [4]) | sleep duration period prolonged by (male ICR mice [3]; [5]) [%] | sleep latency period shortened by (male ICR mice [3]; [5]) [%] |
| --- | --- | --- | --- | --- | --- | --- | --- | --- | --- | --- | --- | --- |
| N=CC(O)CC(=O)O (centres unmarked) [1-carboxy-2-hydroxy-3-iminopropane] | 4.66 ± 1.14 | 333.76 ± 56.84 | 17.81 ± 5.14 | significantly increased | significantly reduced | significantly reduced | 374.33 ± 24.48 | longer than that of the blank group | 3.60 ± 0.368 | 34.73 ± 12.71 | 61.49 | 24.62 |
| Clc1ccc2c(c1)C(c1ccccc1)=NCc1nncn1-2 [estazolam, reference compound] | 4.60 ± 0.96 | 325.85 ± 51.64 | 20.63 ± 9.01 | – | – | – | 404.10 ± 34.03 | – | 2.81 ± 0.57 | – | – | – |
